Data as given in patent publication US9090576B2, “2-substituted-p-quinone derivatives for treatment of oxidative stress diseases” (Edison Pharmaceuticals, Inc., priority 2008, dated 2015).
Read-outs that look alike come from different tables or passages of the source.

How the values were obtained:
Assay type in all cases: cell-based
[1] = test system: Human dermal fibroblasts from Friedreich's Ataxia patients; assay: Rescue of BSO-stressed FRDA fibroblasts (Calcein AM viability); conditions: BSO-stressed FRDA fibroblasts (GM04078)
Protocol: An initial screen was performed to identify compounds effective for the amelioration of redox disorders. Test samples, 4 reference compounds (Idebenone, decylubiquinone, Trolox and α-tocopherol acetate), and solvent controls were tested for their ability to rescue FRDA fibroblasts stressed by addition of L-buthionine-(S,R)-sulfoximine (BSO), as described in Jauslin et al., Hum. Mol. Genet. 11(24):3055 (2002), Jauslin et al., FASEB J. 17:1972-4 (2003), and International Patent Application WO 2004/003565. […] This specific BSO-mediated cell death can be prevented by administration of antioxidants or molecules involved in the antioxidant pathway, such as α-tocopherol, selenium, or small molecule glutathione peroxidase mimetics. However, antioxidants differ in their potency, i.e. the concentration at which they are able to rescue BSO-stressed FRDA fibroblasts.
MEM (a medium enriched in amino acids and vitamins, catalog no. 1-31F24-I) and Medium 199 (M199, catalog no. 1-21F22-I) with Earle's Balanced Salts, without phenol red, were purchased from Bioconcept. Fetal Calf Serum was obtained from PAA Laboratories. Basic fibroblast growth factor and epidermal growth factor were purchased from PeproTech. Penicillin-streptomycin-glutamine mix, L-buthionine (S,R)-sulfoximine, (+)-α-tocopherol acetate, decylubiquinone, and insulin from bovine pancreas were purchased from Sigma. Trolox (6-hydroxy-2,5,7,8-tetramethylchromane-2-carboxylic acid) was obtained from Fluka. Idebenone was obtained from Chemo Iberica. Calcein AM was purchased from Molecular Probes. Cell culture medium was made by combining 125 ml M199 EBS, 50 ml Fetal Calf Serum, 100 U/ml penicillin, 100 μg/ml streptomycin, 2 mM glutamine, 10 μg/ml insulin, 10 ng/ml EGF, and 10 ng/ml bFGF; MEM EBS was added to make the volume up to 500 ml. A 10 mM BSO solution was prepared by dissolving 444 mg BSO in 200 ml of medium with subsequent filter-sterilization. During the course of the experiments, this solution was stored at +4° C. The cells were obtained from the Coriell Cell Repositories (Camden, N.J.; repository number GM04078) and grown in 10 cm tissue culture plates. Every third day, they were split at a 1:3 ratio.
The test samples were supplied in 1.5 ml glass vials. The compounds were diluted with DMSO, ethanol or PBS to result in a 5 mM stock solution. Once dissolved, they were stored at −20° C. Reference antioxidants (Idebenone, decylubiquinone, α-tocopherol acetate and trolox) were dissolved in DMSO.
Test samples were screened according to the following protocol:
(§1) A culture with FRDA fibroblasts was started from a 1 ml vial with approximately 500,000 cells stored in liquid nitrogen. Cells were propagated in 10 cm cell culture dishes by splitting every third day in a ratio of 1:3 until nine plates were available. Once confluent, fibroblasts were harvested. For 54 micro titer plates (96 well-MTP) a total of 14.3 million cells (passage eight) were re-suspended in 480 ml medium, corresponding to 100 μl medium with 3,000 cells/well. The remaining cells were distributed in 10 cm cell culture plates (500,000 cells/plate) for propagation. The plates were incubated overnight at 37° C. in an atmosphere with 95% humidity and 5% CO2 to allow attachment of the cells to the culture plate.
(§2) MTP medium (243 μl) was added to a well of the microtiter plate. The test compounds were unfrozen, and 7.5 μl of a 5 mM stock solution was dissolved in the well containing 243 μl medium, resulting in a 150 μM master solution. Serial dilutions from the master solution were made. The period between the single dilution steps was kept as short as possible (generally less than 1 second).
Plates were kept overnight in the cell culture incubator. The next day, 10 μl of a 10 mM BSO solution were added to the wells, resulting in a 1 mM final BSO concentration. Forty-eight hours later, three plates were examined under a phase-contrast microscope to verify that the cells in the 0% control (wells E1-H1) were clearly dead. […]

[2] = test system: human dermal fibroblasts from LHON patients; assay: Rescue of BSO-stressed fibroblasts from LHON patients (screen as Example A); conditions: Fibroblast, read-out: EC50, protection against LHON
Protocol: as §1, §2
(§3) Plates were kept overnight in the cell culture incubator. The next day, 10 μl of a 10 mM BSO solution were added to the wells, resulting in a 1 mM final BSO concentration. Forty-eight hours later, three plates were examined under a phase-contrast microscope to verify that the cells in the 0% control (wells E1-H1) were clearly dead. The medium from all plates was discarded, and the remaining liquid was removed by gently tapping the plate inversed onto a paper towel.
(§4) 100 μl of PBS containing 1.2 μM Calcein AM were then added to each well. The plates were incubated for 50-70 minutes at room temperature. After that time the PBS was discarded, the plate gently tapped on a paper towel and fluorescence (excitation/emission wavelengths of 485 nm and 525 nm, respectively) was read on a Gemini fluorescence reader. Data was imported into Microsoft Excel (EXCEL is a registered trademark of Microsoft Corporation for a spreadsheet program) and used to calculate the EC50 concentration for each compound.
(§5) Compounds of the invention were screened as described in Example A, but substituting FRDA cells with Leber's Hereditary Optic Neuropathy (LHON) cells obtained from the Coriell Cell Repositories (Camden, N.J.; repository number GM03858). The compounds were tested for their ability to rescue human dermal fibroblasts from LHON patients from oxidative stress.

[3] = test system: human dermal fibroblasts from Huntington's patients; assay: Rescue of BSO-stressed fibroblasts from Huntington's patients (screen as Example A); conditions: Fibroblast, read-out: EC50, protection against Huntington's
Protocol: as §1, §2, §3, §4
as §5, with “tested using the screen” for “screened”, “Huntington's” for “Leber's Hereditary Optic Neuropathy (LHON)”, “GM 04281).” for “GM03858).”, “Huntington's” for “LHON”

[4] = less than about 150 nM, read-out: EC50, protection against FRDA
[5] = BSO-stressed LHON fibroblasts (GM03858), less than about 150 nM
[6] = BSO-stressed Huntington's fibroblasts (GM 04281), less than about 150 nM
[7] = 1 mM BSO, 48 h, first of three experiments, read-out: EC50 Value 1
[8] = 1 mM BSO, 48 h, second of three experiments, read-out: EC50 Value 2
[9] = 1 mM BSO, 48 h, third of three experiments, read-out: EC50 Value 3
[10] = average of three experiments, read-out: EC50 Average

In the case of CCNC(=O)NCCC1=C(C)C(=O)C(C)=C(c2ccc(Cl)cc2)C1=O [1-(2-(5-(4-chlorophenyl)-2,4-dimethyl-3,6-dioxocyclohexa-1,4-dienyl)ethyl)-3-ethylurea], the EC50 [1, 4] is reported as less than 150 nM and the EC50 [2, 5] is reported as less than 150 nM.

For CC1=C(C)C(=O)C(CCCC(=O)N2CCCC2)=C(C)C1=O [2,3,5-trimethyl-6-(4-oxo-4-(pyrrolidin-1-yl)butyl)cyclohexa-2,5-diene-1,4-dione], the EC50 [1, 4] was less than 150 nM.

CC1=C(C)C(=O)C(CCCC(=O)N2CCC(F)(F)CC2)=C(C)C1=O [2-(4-(4,4-difluoropiperidin-1-yl)-4-oxobutyl)-3,5,6-trimethylcyclohexa-2,5-diene-1,4-dione] gave an EC50 [2, 5] of less than 150 nM.

For CC1=C(C)C(=O)C(CCCC(=O)N2CCN(C(=O)C3CCCCC3)CC2)=C(C)C1=O [2-(4-(4-(cyclohexanecarbonyl)piperazin-1-yl)-4-oxobutyl)-3,5,6-trimethylcyclohexa-2,5-diene-1,4-dione], the EC50 [2, 5] was less than 150 nM.

For CC1=C(C)C(=O)C(CCCC(=O)N2CCN(C(=O)c3ccccc3)CC2)=C(C)C1=O [2-(4-(4-benzoylpiperazin-1-yl)-4-oxobutyl)-3,5,6-trimethylcyclohexa-2,5-diene-1,4-dione], the EC50 [2, 5] was less than 150 nM.

With CC1=C(C)C(=O)C(CCC(C)C(=O)N2CCC(F)CC2)=C(C)C1=O (centres unmarked) [2-(4-(4-fluoropiperidin-1-yl)-3-methyl-4-oxobutyl)-3,5,6-trimethylcyclohexa-2,5-diene-1,4-dione] the EC50 [3, 6] was less than 150 nM and the EC50 [2, 5] was less than 150 nM.

For CC1=C(C)C(=O)C(CCCC(=O)N2CCC(F)CC2)=C(C)C1=O [2-(4-(4-fluoropiperidin-1-yl)-4-oxobutyl)-3,5,6-trimethylcyclohexa-2,5-diene-1,4-dione], the EC50 [2, 5] was less than 150 nM.

CC1=C(C)C(=O)C(CCC(C)C(=O)N2CCC(O)CC2)=C(C)C1=O (centres unmarked) [2-(4-(4-hydroxypiperidin-1-yl)-3-methyl-4-oxobutyl)-3,5,6-trimethylcyclohexa-2,5-diene-1,4-dione] showed an EC50 [1, 4] of less than 150 nM.

For CC1=C(C)C(=O)C(CCNC(=O)C(O)c2ccc(Cl)cc2)=C(C)C1=O (centres unmarked) [2-(4-chlorophenyl)-2-hydroxy-N-(2-(2,4,5-trimethyl-3,6-dioxocyclohexa-1,4-dienyl)ethyl)acetamide], the EC50 [3, 6] was less than 150 nM and the EC50 [2, 5] was less than 150 nM.

For CC1=C(C)C(=O)C(CCNC(=O)C(O)c2ccccc2)=C(C)C1=O (centres unmarked) [2-hydroxy-2-phenyl-N-(2-(2,4,5-trimethyl-3,6-dioxocyclohexa-1,4-dienyl)ethyl)acetamide], the EC50 [1, 4] was less than 150 nM and the EC50 [2, 5] was less than 150 nM.

CC1=C(C)C(=O)C(CCC(C)C(N)=O)=C(C)C1=O (centres unmarked) [2-methyl-4-(2,4,5-trimethyl-3,6-dioxocyclohexa-1,4-dienyl)butanamide] showed an EC50 [2, 5] of less than 150 nM.

CCCNC(=O)C(C)CCC1=C(C)C(=O)C(C)=C(C)C1=O (centres unmarked) [2-methyl-N-propyl-4-(2,4,5-trimethyl-3,6-dioxocyclohexa-1,4-dienyl)butanamide] showed an EC50 [3, 6] of less than 150 nM.

With CCNC(=O)N(C)CCC1=C(C)C(=O)C(C)=C(C)C1=O [3-Ethyl-1-methyl-1-(2-(2,4,5-trimethyl-3,6-dioxocyclohexa-1,4-dienyl)ethyl)urea] the EC50 [1, 4] was less than 150 nM.

In the case of CC1=C(C)C(=O)C(CCNC(=O)N2CCC(=O)CC2)=C(C)C1=O [4-Oxo-N-(2-(2,4,5-trimethyl-3,6-dioxocyclohexa-1,4-dienyl)ethyl)piperidine-1-carboxamide], the EC50 [3] is reported as less than 150 nM and the EC50 [2] is reported as less than 150 nM.

Compound CC(=O)N1CCN(C(=O)NCCC2=C(C)C(=O)C(C)=C(C)C2=O)CC1 [4-acetyl-N-(2-(2,4,5-trimethyl-3,6-dioxocyclohexa-1,4-dienyl)ethyl)piperazine-1-carboxamide] has an EC50 [3, 6] of less than 150 nM and an EC50 [2, 5] of less than 150 nM.

Compound CC1=C(C)C(=O)C(CCNC(=O)N2CCC(O)CC2)=C(C)C1=O [4-hydroxy-N-(2-(2,4,5-trimethyl-3,6-dioxocyclohexa-1,4-dienyl)ethyl)piperidine-1-carboxamide] has an EC50 [2, 5] of less than 150 nM.

CCCCCCCCCCC1=C(C)C(=O)C(OC)=C(OC)C1=O [Decylubiquinone, decylubiquinone, reference compound] gave an EC50 [1, 7] of 50 nM, an EC50 [1, 8] of 35 nM and an EC50 [1, 9] of 30 nM. The EC50 [1, 10] was 38 nM.

Compound COC1=C(OC)C(=O)C(CCCCCCCCCCO)=C(C)C1=O [Idebenone, reference compound] has an EC50 [1, 7] of 1500 nM, an EC50 [1, 8] of 1000 nM and an EC50 [1, 9] of 1000 nM. For the same compound, the EC50 [1, 10] was 1200 nM.

CC1=C(C)C(=O)C(CCNC(=O)c2cccnc2)=C(C)C1=O [N-(2-(2,4,5-trimethyl-3,6-dioxocyclohexa-1,4-dienyl)ethyl)nicotinamide] showed an EC50 [2, 5] of less than 150 nM.

With CC1=C(C)C(=O)C(CCNC(=O)N2CCCCC2)=C(C)C1=O [N-(2-(2,4,5-trimethyl-3,6-dioxocyclohexa-1,4-dienyl)ethyl)piperidine-1-carboxamide] the EC50 [1, 4] was less than 150 nM.

CCCCCC(=O)NCCC1=C(CCC(C)(C)O)C(=O)C(C)=C(C)C1=O [N-(2-(2-(3-Hydroxy-3-methylbutyl)-4,5-dimethyl-3,6-dioxocyclohexa-1,4-dienyl)ethyl)hexanamide] was tested, and the EC50 [3, 6] was less than 150 nM and the EC50 [2, 5] was less than 150 nM.

For CC1=C(CCNC(=O)C2CCC(F)(F)CC2)C(=O)C(c2ccc(Cl)cc2)=C(C)C1=O [N-(2-(5-(4-chlorophenyl)-2,4-dimethyl-3,6-dioxocyclohexa-1,4-dienyl)ethyl)-4,4-difluorocyclohexanecarboxamide], the EC50 [1, 4] was less than 150 nM and the EC50 [2, 5] was less than 150 nM.

With Cc1c(C)c2c(c(C)c1O)CCC(C)(C(=O)O)O2 (centres unmarked) [Trolox, 6-hydroxy-2,5,7,8-tetramethylchromane-2-carboxylic acid, reference compound] the EC50 [1, 7] was 9000 nM, the EC50 [1, 8] was 9000 nM and the EC50 [1, 9] was 8000 nM. It also gave an EC50 [1, 10] of 8700 nM.

For CC(=O)Oc1c(C)c(C)c2c(c1C)CCC(C)(CCC[C@H](C)CCC[C@H](C)CCCC(C)C)O2 (stereo partly drawn) [alpha-Tocopherol acetate, (+)-α-tocopherol acetate, reference compound], the EC50 [1, 7] was 400 nM, the EC50 [1, 8] was 150 nM and the EC50 [1, 9] was 350 nM. For the same compound, the EC50 [1, 10] was 300 nM.
